Experimental findings from US20210338647A1, “Combination of Acetylcholinesterase Inhibitor and 5-HT4 Receptor Agonist As Neuroprotective Agent In the Treatment of Neurodegenerative Diseases” (UNIVERSITE DE CAEN NORMANDIE, priority 2018, published 2021) are described below.

Marks after values point to notes of the source that are not given here.

The test system of experiment [1] is rat primary hippocampal neurons injured with Aβ 1-42. In words: Neurite network of MAP-2 neurons in primary culture of hippocampal neurons injured with Aβ 1-42. The note with it: for Neurite network / Neurite/neuron: Aβ1-42 20 μM/2.5 μM, percentage of control, Example 3. The experiment is classed as cell-based. On the procedure: (§1) Rat hippocampal neurons were cultured as described by Callizot et al. (2013) J. Neurosci. Res. 91706-716. Pregnant female rats of 17 days gestation (Rats Wistar; Janvier Labs France) were killed using a deep anesthesia with CO2 chamber followed by a cervical dislocation. Then, fetuses were removed from the uterus and immediately placed in ice-cold L15 Leibovitz medium with a 2% penicillin (10,000 U/ml) and streptomycin (10 mg/ml) solution (PS) and 1% bovine serum albumin (BSA). Hippocampal neurons were treated for 20 min at 37° C. with a trypsin-EDTA solution at a final concentration of 0.05% trypsin and 0.02% EDTA. The dissociation was stopped by adding Dulbecco's modified Eagle's medium (DMEM) with 4.5 g/l of glucose, containing DNAse I grade 11 (final concentration 0.5 mg/ml) and 10% fetal calf serum (FCS). Cells were mechanically dissociated by three forced passages through the tip of a 10-ml pipette and then centrifuged at 515×g for 10 min at 4° C. The supernatant was discarded, and the pellet was resuspended in a defined culture medium consisting of Neurobasal medium with a 2% solution of B27 supplement, 2 mmol/l of L-glutamine, 2% of PS solution, and 10 ng/ml of brain-derived neurotrophic factor (BDNF). Viable cells were counted in a Neubauer cytometer, using the trypan blue exclusion test. […] The medium was changed every 2 days.
(§2) The hippocampal neurons were exposed with Aβ solutions (see below) after 17 days of culture. The Aβ1-42 preparation was done following the procedure described by Callizot et al. (2013) J. Neurosci. Res. 91706-716. Briefly, Aβ1-42 peptide was dissolved in the defined culture medium mentioned above, at an initial concentration of 40 μM. This solution was gently agitated for 3 days at 37° C. in the dark and immediately used after being properly diluted in culture medium to the concentrations used (20 μM (plate 1) or 2.5 μM (plate 2) corresponding to 2 μM or 0.25 μM of oligomers (AβO) respectively).
(§3) Donecopride fumarate was solved in culture medium and preincubated 1 h before Aβ application. Aβ1-42 preparation was added to a final concentration of 20 or 2.5 μM (=2 μM or 0.25 μM of AβO, evaluated by automatic Western Blot) diluted in control medium in presence of Donecopride.
(§4) Donecopride fumarate (Donecopride) was tested on one culture in a 96 well plate (6 wells per conditions). The compound was preincubated one hour before […] application. The following conditions were assessed:
(§5) After permeabilization with 0.1% of saponin, cells were incubated for 2 h with:
a) chicken polyclonal antibody anti microtubule-associated-protein 2 (MAP-2), diluted at 1/1000 in PBS containing 1% fetal calf serum and 0.1% of saponin (this antibody allows the specific staining of neuronal cell bodies and neurites; and allow the study of neuronal cell death and neurite network).
(§6) For each condition, 30 pictures (representative of the whole well area) per well were taken using ImageXpress (Molecular Devices) at 20× magnification. All images were taken with the same acquisition parameters. Analyses were performed automatically by using Custom Module Editor (Molecular Devices).
Neurite network (in μm of MAP-2 positive neurons)
The neurite network is proportional to the number of neurons in the culture. The total neurite network was normalized by the number of neurons, in order to determine the average length of neurite per neurons.
Rat hippocampal neurons were cultured as described by Callizot et al. (2013) J. Neurosci. Res. 91:706-716. Briefly, pregnant female rats of 17 days gestation (Rats Wistar; Janvier Labs France) were killed using a deep anesthesia with CO2 chamber and a cervical dislocation. Then, fetuses were removed from the uterus and immediately placed in ice-cold L15 Leibovitz medium with a 2% penicillin (10,000 U/ml) and streptomycin (10 mg/ml) solution (PS) and 1% bovine serum albumin (BSA). The hippocampi were treated for 20 min at 37° C. with a trypsin-EDTA solution at a final concentration of 0.05% trypsin and 0.02% EDTA. […]

Experiment [2] has as its system phospho Tau (AT100). In words: Phosphorylation of Tau (AT100) in MAP-2 neurons injured with Aβ 1-42. It counts as cell-based, rat. The note with it: for AT100: Aβ1-42 20 μM/2.5 μM, percentage of control, Example 3. As to the method: as §1, §2, §3, §4, §5
b) mouse monoclonal antibody anti-phospho Tau (AT100) at dilution of 1/400 in PBS containing 1% fetal calf serum and 0.1% of saponin.
as §6
area of tau in neurons (μm^2, overlapping with MAP-2 positive neurons).
Rat hippocampal neurons were cultured as described by Callizot et al. (2013) J. Neurosci. Res. 91:706-716. Briefly, pregnant female rats of 17 days gestation (Rats Wistar; Janvier Labs France) were killed using a deep anesthesia with CO2 chamber and a cervical dislocation. Then, fetuses were removed from the uterus and immediately placed in ice-cold L15 Leibovitz medium with a 2% penicillin (10,000 U/ml) and streptomycin (10 mg/ml) solution (PS) and 1% bovine serum albumin (BSA). The hippocampi were treated for 20 min at 37° C. with a trypsin-EDTA solution at a final concentration of 0.05% trypsin and 0.02% EDTA. The dissociation was stopped by addition of Dulbecco's modified Eagle's medium (DMEM) with 4.5 g/l of glucose, containing DNAse I grade II (final concentration 0.5 mg/ml) and 10% fetal calf serum (FCS). Cells were mechanically dissociated by three forced passages through the tip of a 10-ml pipette.

Experiment [3] has as its system rat primary hippocampal neurons injured with Aβ 1-42. Kind of experiment: Number of synapses (PSD95/SYN overlap) in primary culture of hippocampal neurons injured with Aβ 1-42. To be noted: for Synapses: Aβ1-42 20 μM/2.5 μM, percentage of control, Example 3. It counts as cell-based. On the procedure: as §1, §2, §3, §4, §5
a) mouse monoclonal antibody anti post synaptic density 95 kDa (PSD95) at a dilution of 1/100 in PBS containing 1% fetal calf serum and 0.1% of saponin.
b) Rabbit polyclonal antibody anti-synaptophysin (SYN) at the dilution of 1/100 in PBS containing 1% fetal calf serum and 0.1% of saponin.
For each condition, 40 pictures per well were taken using ImageXpress (Molecular Devices) with 40× magnification. All images were taken with the same acquisition parameters.
Synapses evaluation was performed automatically by using Custom module editor (Molecular Devices).
Total number of synapses (overlapping between PSD95/SYN).
To assess the formation of synapses, the distribution of PSD-95, a post-synaptic marker, and synaptophysin, a pre-synaptic marker, was studied. A structure positive for both PSD-95 and synaptophysin staining was considered as a synapse.
Rat hippocampal neurons were cultured as described by Callizot et al. (2013) J. Neurosci. Res. 91:706-716.

[4] abbreviates: Aβ 1-42 injured hippocampal neurons, Example 3 step 1.

`COc1cc2c(cc1OC)C(=O)C(CC1CCN(Cc3ccccc3)CC1)C2` (centres unmarked) [Donepezil]: the Neurite network is on record as 68% in experiment [1] (donepezil 100 pM); 75%* in experiment [1] (donepezil 1 nM); 79%* in experiment [1] (donepezil 10 nM); 85%* in experiment [1] (donepezil 50 nM); 85%* in experiment [1] (donepezil 100 nM); 87%* in experiment [1] (donepezil 500 nM). Besides, the Neurite network in experiment [1] (donepezil 1 μM) was 90%*; in experiment [1] (donepezil 10 μM) it was 88%*. For the same molecule, the Neurite/neuron in experiment [1] (donepezil 100 pM) is 99%; in experiment [1] (donepezil 1 nM) it was 99%; in experiment [1] (donepezil 10 nM), 91%; in experiment [1] (donepezil 50 nM) it was 94%; in experiment [1] (donepezil 100 nM), 94%; in experiment [1] (donepezil 500 nM), 101%. Moreover, the Neurite/neuron in experiment [1] (donepezil 1 μM) amounted to 105%*; in experiment [1] (donepezil 10 μM) it was 103%*. For the same molecule, the AT100 in experiment [2] (donepezil 100 pM) is given as 181%; in experiment [2] (donepezil 1 nM), 165%*; in experiment [2] (donepezil 1 nM, listed as donepezil), 165%; in experiment [2] (donepezil 10 nM) it was 146%*; in experiment [2] (donepezil 50 nM), 139%*; in experiment [2] (donepezil 100 nM) it was 140%*. Also, the AT100 in experiment [2] (donepezil 500 nM) was 142%*; in experiment [2] (donepezil 1 μM), 141%*; in experiment [2] (donepezil 10 μM), 143%*. Also, the “Number of synapses normalized by the number of neurons (formation of new synapses)” value in experiment [3] (Donepezil 1 μM, Aβ 1-42 injured hippocampal neurons, Example 1) is reported as “had no effect”. Moreover, the Synapses in experiment [3] (donepezil 100 pM) is given as 68%; in experiment [3] (donepezil 1 nM), 72%; in experiment [3] (donepezil 10 nM), 81%*; in experiment [3] (donepezil 50 nM) it was 84%*; in experiment [3] (donepezil 100 nM) it was 87%*; in experiment [3] (donepezil 500 nM), 90%*. Also, the Synapses in experiment [3] (donepezil 1 μM) was found to be 91%*; in experiment [3] (donepezil 10 μM), 93%*.

Turning to `CCCCN1CCC(CCC(=O)c2cc(Cl)c(N)cc2OC)CC1` [RS67333, 1-(4-amino-5-chloro-2-methoxy-phenyl)-3-(1-butyl-4-piperidinyl)-1-propanone], the “Lowest protective active dose: neurite network” value in experiment [1] (setting [4]) came to 10 nM. For the same molecule, in experiment [1] (RS67333 alone, Aβ 1-42 injured hippocampal neurons, Example 3 step 1), the “Average length of neurites per neurons (FIG. 1C)” value is on record as “protective effects”. In addition, the “Lowest protective active dose: hyperphosphorylation of Tau” value in experiment [2] (setting [4]) is listed as 1 nM. Besides, the “Lowest protective active dose: synapse” value in experiment [3] (setting [4]) came to 1 µM.
